test system: mushroom tyrosinase; assay: Tyrosinase inhibition screening (L-DOPA oxidation, absorbance at 470 nm); assay type: biochemical; details: Concentration 0.1%; single compounds
Excerpt: The tyrosinase inhibition may be used to determine the tyrosinase inhibition ability of the compounds. The test comprises adding the test compound to a solution of L-dihydroxyphenylalanine (L-(DOPA)) and mushroom tyrosinase. L-(DOPA) is converted to […] by the mushroom tyrosinase, causing a brown colour to form. Inhibition of this reaction prevents the brown colour formation. The lighter the colour at the end of the reaction, the stronger is the inhibitory effect of the active. Absorbance data may be collected using a plate reacted set up to have a kinetic read every 1 minute for 30 minutes, where absorbance is read at 470 nm.

First: O=C(O)C(O)c1ccccc1 (stereo not shown) [C, Mandelic acid]
Second: C=C(C)[C@@H]1CCC(C)=C[C@H]1c1c(O)cc(CCCCC)cc1O [F, Cannabidiol isolate (CBD)]
The “Tyrosinase Inhibition (%)” value of the first is higher: 80.279% for the first, 9.134% for the second.

First: CCCCCCCCCCCCCCC[C@@H](O)[C@@H](N)CO [G, Sphinganine]
Second: Feruloyl oligopeptide-33
The “Tyrosinase Inhibition (%)” value of the first is lower: -5.78% for the first, 41.765% for the second.
